Measured values published in patent US10188634B2, “3-(3H-imidazo[4,5-C]pyridin-2-yl)-1 H-pyrazolo[4,3-B]pyridines and therapeutic uses thereof” (Samumed, LLC, priority 2015, dated 2019).

Experiments:
Assay type in all cases: cell-based
[1] = tested on: LL29 cells (primary human fibroblasts derived from IPF patients) treated with TGF-β1, α-smooth muscle actin; experiment: Inhibition of the fibrotic process: αSMA staining in TGF-β1 treated primary human fibroblasts from IPF patients (LL29 cells); details: Fibroblast, 96 h; for EC50: LL29 cells treated with TGF-β1 (20 ng/mL), 4 days; for inhibition at 10 µM: LL29 cells treated with TGF-β1, 4 days, read-out: percent inhibition in brackets (given for EC50 >10 μM)
[2] = tested on: Wnt activity (Sp5-Luc reporter, human Sp5 promoter with eight TCF/LEF binding sites) in SW480 colon carcinoma cells; experiment: Screening assay for Wnt activity: Sp5-Luc reporter gene assay in SW480 cells; details: for EC50: 10-point dose-response starting from 10 μM, overnight incubation; for inhibition at 10 µM: read-out: percent inhibition at 10 μM (given for EC50 of >10 μM)
Method in brief: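 SW480 cells stably carrying Sp5-Luc reporter (eight TCF/LEF sites) plated at 4,000/well in 1% FBS medium with compound (10-point 1:3 series from 10 μM, 0.1% DMSO) overnight at 37 °C. BrightGlo luminescence normalized to DMSO; EC50 by four-parameter fit, else % inhibition at 10 μM.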

[3] = tested on: SW480 colon cancer cells; experiment: Cell viability assay (CellTiter-Blue) in SW480 colon cancer cells; details: Homo sapiens, 96 h; for EC50: four days incubation, CellTiter-Blue cell viability; for inhibition at 10 µM: four days, CellTiter-Blue, read-out: percent inhibition at 10 μM (given for EC50 of >10 μM)
Method in brief: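 About 2×10^3 SW480 colon cancer cells per well were exposed to compound (8-point 1:3 dilutions, 10 μM to 0.004 μM) for four days at 37 °C. Viability was read by CellTiter-Blue resazurin reduction (~3 h, Ex 560/Em 590). EC50 from nonlinear regression; above 10 μM, % inhibition at 10 μM is reported.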

Row | SMILES | EC50 [2] | EC50 [3] | EC50 [1] | inhibition at 10 µM [1] | inhibition at 10 µM [3] | inhibition at 10 µM [2]
1 | CN(C)CCOc1cncc(-c2ccc3[nH]nc(-c4nc5c(-c6cccc(F)c6)cncc5[nH]4)c3n2)c1 [Compound 487, 2-((5-(3-(7-(3-Fluorophenyl)-3H-imidazo[4,5-c]pyridin-2-yl)-1H-pyrazolo[4,3-b]pyridin-5-yl)pyridin-3-yl)oxy)-N,N-dimethylethan-1-amine] | 3.44 µM | 5.54 µM | > 10 µM | 30.7% | – | –
2 | c1ncc(-c2ccc3[nH]nc(-c4nc5c(N6CCCCC6)cncc5[nH]4)c3n2)cc1OCCN1CCCC1 [Compound 582, 3-(7-(Piperidin-1-yl)-3H-imidazo[4,5-c]pyridin-2-yl)-5-(5-(2-(pyrrolidin-1-yl)ethoxy)pyridin-3-yl)-1H-pyrazolo[4,3-b]pyridine] | > 10 µM | > 10 µM | 3.32 µM | – | 15.8% | 6.6%
3 | Oc1cncc(-c2ccc3[nH]nc(-c4nc5c(N6CCCCC6)cncc5[nH]4)c3n2)c1 [Compound 585, 5-(3-(7-(Piperidin-1-yl)-3H-imidazo[4,5-c]pyridin-2-yl)-1H-pyrazolo[4,3-b]pyridin-5-yl)pyridin-3-ol] | > 10 µM | > 10 µM | > 10 µM | 39.1% | 2.4% | 4.3%
4 | Cc1cn(-c2cncc3[nH]c(-c4n[nH]c5ccc(C6=CCNCC6)nc45)nc23)cn1 [Compound 590, 3-(7-(4-Methyl-1H-imidazol-1-yl)-3H-imidazo[4,5-c]pyridin-2-yl)-5-(1,2,3,6-tetrahydropyridin-4-yl)-1H-pyrazolo[4,3-b]pyridine] | > 10 µM | > 10 µM | > 10 µM | 36.8% | 10% | 6.8%
5 | Cc1cn(-c2cncc3[nH]c(-c4n[nH]c5ccc(-c6cncc(OCCN(C)C)c6)nc45)nc23)cn1 [Compound 599, N,N-Dimethyl-2-((5-(3-(7-(4-methyl-1H-imidazol-1-yl)-3H-imidazo[4,5-c]pyridin-2-yl)-1H-pyrazolo[4,3-b]pyridin-5-yl)pyridin-3-yl)oxy)ethan-1-amine] | > 10 µM | > 10 µM | > 10 µM | 15.4% | 7.1% | 6.3%
6 | Cc1ncc(-c2ccc3[nH]nc(-c4nc5c(-c6ccoc6)cncc5[nH]4)c3n2)n1C [Compound 641, 5-(1,2-Dimethyl-1H-imidazol-5-yl)-3-(7-(furan-3-yl)-3H-imidazo[4,5-c]pyridin-2-yl)-1H-pyrazolo[4,3-b]pyridine] | 0.911 µM | 2.88 µM | > 10 µM | 0% | – | –
7 | CC(C)CC(=O)Nc1cncc(-c2ccc3[nH]nc(-c4nc5c(-c6ccc(Cl)s6)cncc5[nH]4)c3n2)c1 [Compound 992, N-(5-(3-(7-(5-Chlorothiophen-2-yl)-3H-imidazo[4,5-c]pyridin-2-yl)-1H-pyrazolo[4,3-b]pyridin-5-yl)pyridin-3-yl)-3-methylbutanamide] | 4.08 µM | > 10 µM | 2.29 µM | – | 25.1% | –
8 | CC(C)(C)C(=O)Nc1cncc(-c2ccc3[nH]nc(-c4nc5c(-c6ccc(Cl)s6)cncc5[nH]4)c3n2)c1 [Compound 998, N-(5-(3-(7-(5-Chlorothiophen-2-yl)-3H-imidazo[4,5-c]pyridin-2-yl)-1H-pyrazolo[4,3-b]pyridin-5-yl)pyridin-3-yl)pivalamide] | 0.551 µM | > 10 µM | 2.7 µM | – | 1.5% | –
9 | O=C(Nc1cncc(-c2ccc3[nH]nc(-c4nc5c(-c6ccc(Cl)s6)cncc5[nH]4)c3n2)c1)C1CCC1 [Compound 1011, N-(5-(3-(7-(5-Chlorothiophen-2-yl)-3H-imidazo[4,5-c]pyridin-2-yl)-1H-pyrazolo[4,3-b]pyridin-5-yl)pyridin-3-yl)cyclobutanecarboxamide] | 0.8 µM | 2.51 µM | 1.05 µM | – | – | –

More lines, main results first:

Row | EC50 [2] | EC50 [3] | SMILES | EC50 [1] | inhibition at 10 µM [1] | inhibition at 10 µM [3] | inhibition at 10 µM [2]
10 | 0.024 µM | > 10 µM | COc1cncc(-c2ccc3[nH]nc(-c4nc5c(-c6cccc(F)c6)cncc5[nH]4)c3n2)c1 [Compound 488, 3-(7-(3-Fluorophenyl)-3H-imidazo[4,5-c]pyridin-2-yl)-5-(5-methoxylpyridin-3-yl)-1H-pyrazolo[4,3-b]pyridine] | > 10 µM | 0% | 0% | –
11 | > 10 µM | > 10 µM | O=C(CC1CCNCC1)Nc1cncc(-c2ccc3[nH]nc(-c4nc5c(-c6ccccn6)cncc5[nH]4)c3n2)c1 [Compound 565, 2-(Piperidin-4-yl)-N-(5-(3-(7-(pyridin-2-yl)-3H-imidazo[4,5-c]pyridin-2-yl)-1H-pyrazolo[4,3-b]pyridin-5-yl)pyridin-3-yl)acetamide] | 0.839 µM | – | 5.1% | 44.2%
12 | > 10 µM | > 10 µM | CN1CCN(c2cncc3[nH]c(-c4n[nH]c5ccc(-c6cnccn6)nc45)nc23)CC1 [Compound 620, 3-(7-(4-Methylpiperazin-1-yl)-3H-imidazo[4,5-c]pyridin-2-yl)-5-(pyrazin-2-yl)-1H-pyrazolo[4,3-b]pyridine] | > 10 µM | 34.1% | 48.8% | 5.8%
13 | > 10 µM | > 10 µM | O=C(CC1CCNCC1)Nc1cncc(-c2ccc3[nH]nc(-c4nc5c(-c6ccsc6)cncc5[nH]4)c3n2)c1 [Compound 629, 2-(Piperidin-4-yl)-N-(5-(3-(7-(thiophen-3-yl)-3H-imidazo[4,5-c]pyridin-2-yl)-1H-pyrazolo[4,3-b]pyridin-5-yl)pyridin-3-yl)acetamide] | 2.54 µM | – | 2.8% | 30.6%
14 | 3.79 µM | 2.94 µM | Clc1ccc(-c2cncc3[nH]c(-c4n[nH]c5ccc(-c6cncc(CN7CCCC7)c6)nc45)nc23)s1 [Compound 1004, 3-(7-(5-Chlorothiophen-2-yl)-3H-imidazo[4,5-c]pyridin-2-yl)-5-(5-(pyrrolidin-1-ylmethyl)pyridin-3-yl)-1H-pyrazolo[4,3-b]pyridine] | 3.47 µM | – | – | –
